From patent US8686024B2, “Indoline derivatives” (priority 2009, dated 2014)
Where two headings read alike, the source gives them in different places.

Assays:
[1] = biological target: T1, acetylcholine esterase (AChE) (Mus musculus, UniProt P21836); assay: In vitro assay for choline esterase inhibition (Ellman method), acetylthiocholine substrate, mouse brain homogenate; assay type: biochemical
T1 construct: brain homogenate and serum of mouse were used as choline esterase enzyme sources; from tissue; host or cells: mouse brain homogenate
T1 sequence (P21836 32-614): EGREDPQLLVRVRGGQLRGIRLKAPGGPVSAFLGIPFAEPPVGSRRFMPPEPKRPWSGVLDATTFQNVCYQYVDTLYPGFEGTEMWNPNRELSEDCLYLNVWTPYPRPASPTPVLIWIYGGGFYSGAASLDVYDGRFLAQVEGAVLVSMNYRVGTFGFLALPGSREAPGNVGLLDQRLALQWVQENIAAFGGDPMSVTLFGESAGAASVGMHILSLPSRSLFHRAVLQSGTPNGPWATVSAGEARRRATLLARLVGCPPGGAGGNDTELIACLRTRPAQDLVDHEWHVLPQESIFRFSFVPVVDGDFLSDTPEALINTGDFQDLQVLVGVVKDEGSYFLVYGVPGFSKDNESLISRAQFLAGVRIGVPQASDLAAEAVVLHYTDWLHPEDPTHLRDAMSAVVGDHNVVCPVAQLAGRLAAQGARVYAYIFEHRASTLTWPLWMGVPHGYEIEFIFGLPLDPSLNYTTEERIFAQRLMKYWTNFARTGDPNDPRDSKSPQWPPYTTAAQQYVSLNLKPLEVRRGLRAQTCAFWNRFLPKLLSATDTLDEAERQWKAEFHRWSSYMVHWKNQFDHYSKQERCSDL
Experimental: (§1) For measurement of esterase activity, brain homogenate and serum of mouse were used as choline esterase enzyme sources, and the method of Ellman et. al (Biochemical pharmacology 7: 88-95 1961) were referred. Compound of each example were diluted in dimethylsulfoxide.
(§2) In detail, acetylthiocholine or butyrylthiocholine as substrates, test compounds, and DNTB [[…]] were added to the mouse brain homogenate or serum, respectively.
(§3) After incubation, thiocholine was produced by enzyme reaction in the mixture, and then, the yellow product was formed by the reaction of thiocholine and DTNB. The activity of acetylcholine esterase (AChE) or butyrylcholine esterase (BuChE) was evaluated by determination of absorbance at 415 nm. […] And the selectivity for BuChE inhibition of each compound was calculated by the ratio: IC50 (AchE)/IC50 (BuChE).

[2] = biological target: T2, butyrylcholine esterase (BuChE) (Mus musculus, UniProt Q03311); assay: In vitro assay for choline esterase inhibition (Ellman method), butyrylthiocholine substrate, mouse serum; assay type: biochemical; conditions: for Ratio AChE/BuChE: selectivity for BuChE inhibition: IC50 (AchE)/IC50 (BuChE); for selectivity to butyrylcholinesterase (BuChE versus AChE inhibitory activity), in words: summary of Tables 1-3
T2 construct: brain homogenate and serum of mouse were used as choline esterase enzyme sources; from tissue; host or cells: mouse serum
Experimental: as §1, §2, §3

[3] = mouse brain homogenate, acetylthiocholine, absorbance at 415 nm, read-out: AChE inhibitory activity IC50
[4] = mouse serum, butyrylthiocholine, absorbance at 415 nm, read-out: BuChE inhibitory activity IC50

T2 sequence (Q03311 30-603): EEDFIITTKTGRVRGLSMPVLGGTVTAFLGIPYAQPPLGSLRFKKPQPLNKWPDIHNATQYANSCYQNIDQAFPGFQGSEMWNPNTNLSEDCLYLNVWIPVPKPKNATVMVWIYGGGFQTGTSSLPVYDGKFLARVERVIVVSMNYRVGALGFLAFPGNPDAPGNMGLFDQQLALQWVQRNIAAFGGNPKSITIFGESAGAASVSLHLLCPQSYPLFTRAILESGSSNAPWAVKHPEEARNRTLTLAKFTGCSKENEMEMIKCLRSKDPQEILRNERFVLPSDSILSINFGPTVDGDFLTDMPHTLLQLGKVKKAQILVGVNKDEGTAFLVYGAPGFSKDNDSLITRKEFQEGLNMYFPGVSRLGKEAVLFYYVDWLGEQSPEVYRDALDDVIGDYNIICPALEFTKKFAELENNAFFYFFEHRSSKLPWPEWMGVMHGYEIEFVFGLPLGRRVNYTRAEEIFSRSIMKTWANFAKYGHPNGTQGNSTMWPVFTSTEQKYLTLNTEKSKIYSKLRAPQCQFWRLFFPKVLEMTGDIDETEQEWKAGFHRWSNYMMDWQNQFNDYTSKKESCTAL

In the case of `C=C(C)CNC(=O)Oc1ccc2c(c1)CCN2Cc1ccccc1` [Example 53, 1-benzylindolin-5-yl 2-methylallylcarbamate], the IC50 [1, 3] is reported as 46000 nM, the IC50 [2, 4] is reported as 28 nM and the “Ratio AChE/BuChE” value [2] is reported as 1600. For the same molecule, the “selectivity to butyrylcholinesterase (BuChE versus AChE inhibitory activity), in words” value [2] was “much higher”.

With `O=C(NCCSCc1ccco1)Oc1ccc2c(c1)CCN2Cc1ccccc1` [Example 54, 1-benzylindolin-5-yl 2-(furfurylthio)ethylcarbamate] the IC50 [1] was greater than 100000 nM, the IC50 [2] was 15 nM and the “Ratio AChE/BuChE” value [2] was greater than 6700. For the same molecule, the “selectivity to butyrylcholinesterase (BuChE versus AChE inhibitory activity), in words” value [2] was “much higher”.

For `Cc1ccc(NC(=O)Oc2ccc3c(c2)CCN3Cc2ccccc2)cc1` [Example 55, 1-benzylindolin-5-yl-4-methylphenylcarbamate], the IC50 ([1]; read-out: AChE inhibitory activity IC50) was greater than 100000 nM, the IC50 [2, 4] was 290 nM and the “Ratio AChE/BuChE” value [2] was greater than 340.

For `CCNC(=O)Oc1ccc2c(c1)CCN2Cc1ccccc1` [Example 57, 1-benzylindolin-5-yl ethylcarbamate], the IC50 [1, 3] was 69000 nM, the IC50 [2, 4] was 34 nM and the “Ratio AChE/BuChE” value [2] was 2000. For the same molecule, the “selectivity to butyrylcholinesterase (BuChE versus AChE inhibitory activity), in words” value [2] was “much higher”.

In the case of `CC(C)c1ccc(NC(=O)Oc2ccc3c(c2)CCN3Cc2ccccn2)cc1` [Example 60, 1-(2-pyridylmethyl)indolin-5-yl 4-isopropylphenylcarbamate], the IC50 [1] is reported as greater than 100000 nM, the IC50 [2] is reported as 130 nM and the “Ratio AChE/BuChE” value [2] is reported as greater than 770.

In the case of `CC(C)c1ccc(NC(=O)Oc2ccc3c(c2)CCN3Cc2cccc(O)c2)cc1` [Example 62, 1-(3-hydroxybenzyl)indolin-5-yl 4-isopropylphenylcarbamate], the IC50 [1] is reported as greater than 100000 nM, the IC50 [2] is reported as 450 nM and the “Ratio AChE/BuChE” value [2] is reported as greater than 220.

With `CC(C)c1ccc(NC(=O)Oc2ccc3c(c2)CCN3Cc2ccc[nH]2)cc1` [Example 65, 1-[(pyrrol-2-yl)methyl]indolin-5-yl-4-isopropylphenylcarbamate] the IC50 [1, 3] was greater than 100000 nM, the IC50 [2, 4] was 700 nM and the “Ratio AChE/BuChE” value [2] was greater than 140.

In the case of `CC(C)c1ccc(NC(=O)Oc2ccc3c(c2)CCN3Cc2ccccc2O)cc1` [Example 66, 1-(2-hydroxybenzyl)indolin-5-yl 4-isopropylphenylcarbamate], the IC50 [1] is reported as greater than 100000 nM, the IC50 [2] is reported as 570 nM and the “Ratio AChE/BuChE” value [2] is reported as greater than 180.

In the case of `COc1cc(CN2CCc3cc(OC(=O)Nc4ccc(C(C)C)cc4)ccc32)ccc1O` [Example 67, 1-(4-hydroxy-3-methoxybenzyl)indolin-5-yl-4-isopropylphenylcarbamate], the IC50 [1, 3] is reported as greater than 100000 nM, the IC50 [2, 4] is reported as 1300 nM and the “Ratio AChE/BuChE” value [2] is reported as greater than 77.

`CC(C)c1ccc(NC(=O)Oc2ccc3c(c2)CCN3CC2CCCCC2)cc1` [Example 75, 1-(cyclohexylmethyl)indolin-5-yl 4-isopropylphenylcarbamate] was tested, and the IC50 [1] was greater than 100000 nM, the IC50 [2] was 770 nM and the “Ratio AChE/BuChE” value [2] was greater than 130.

For `CC(C)c1ccc(NC(=O)Oc2ccc3c(c2)CCN3Cc2ccc(O)cc2)cc1` [Example 78, 1-(4-hydroxybenzyl)indolin-5-yl 4-isopropylphenylcarbamate], the IC50 [1] was greater than 100000 nM, the IC50 [2] was 820 nM and the “Ratio AChE/BuChE” value [2] was greater than 120.

With `CC(C)c1ccc(NC(=O)Oc2ccc3c(c2)CCN3Cc2c[nH]c3ccccc23)cc1` [Example 80, 1-(indol-3-ylmethyl)indolin-5-yl 4-isopropylphenylcarbamate] the IC50 [1] was greater than 100000 nM, the IC50 [2] was 140 nM and the “Ratio AChE/BuChE” value [2] was greater than 710.

For `O=C(Nc1ccc2c(c1)CCC2)Oc1ccc2c(c1)CCN2Cc1ccccc1` [Example 85, 1-benzylindolin-5-yl 5-indanylcarbamate], the IC50 [1] was greater than 100000 nM, the IC50 [2] was 420 nM and the “Ratio AChE/BuChE” value [2] was greater than 240.

In the case of `Cc1ccc(CCNC(=O)Oc2ccc3c(c2)CCN3Cc2ccccc2)cc1` [Example 91, 1-benzylindolin-5-yl-4-methylphenethylcarbamate], the IC50 [1, 3] is reported as greater than 100000 nM, the IC50 [2, 4] is reported as 59 nM and the “Ratio AChE/BuChE” value [2] is reported as greater than 1700. For the same molecule, the “selectivity to butyrylcholinesterase (BuChE versus AChE inhibitory activity), in words” value [2] was “much higher”.

For `O=C(NC1CCCc2ccccc21)Oc1ccc2c(c1)CCN2Cc1ccccc1` (stereo not drawn) [Example 96, 1-benzylindolin-5-yl-1,2,3,4-tetrahydronaphthalen-1-ylcarbamate], the IC50 [1, 3] was greater than 100000 nM, the IC50 [2, 4] was 17 nM and the “Ratio AChE/BuChE” value [2] was greater than 5900. The “selectivity to butyrylcholinesterase (BuChE versus AChE inhibitory activity), in words” value [2] was “much higher”.

For `Cc1ccc(C(C)NC(=O)Oc2ccc3c(c2)CCN3Cc2ccccc2)cc1` (stereo not drawn) [Example 97, 1-benzylindolin-5-yl 1-(p-tolyl)ethylcarbamate], the IC50 [1] was greater than 100000 nM, the IC50 [2] was 450 nM and the “Ratio AChE/BuChE” value [2] was greater than 220.

For `O=C(NCc1cccs1)Oc1ccc2c(c1)CCN2Cc1ccccc1` [Example 98, 1-benzylindolin-5-yl 2-thiophenemethylcarbamate], the IC50 [1, 3] was 1600 nM, the IC50 [2, 4] was 12 nM and the “Ratio AChE/BuChE” value [2] was 130. The “selectivity to butyrylcholinesterase (BuChE versus AChE inhibitory activity), in words” value [2] was “much higher”.

For `Cc1ccc(CNC(=O)Oc2ccc3c(c2)CCN3Cc2ccccc2)cc1` [Example 99, 1-benzylindolin-5-yl-4-methylbenzylcarbamate], the IC50 [1, 3] was 14000 nM, the IC50 [2, 4] was 21 nM and the “Ratio AChE/BuChE” value [2] was 670. For the same molecule, the “selectivity to butyrylcholinesterase (BuChE versus AChE inhibitory activity), in words” value [2] was “much higher”.

For `COc1cccc(CNC(=O)Oc2ccc3c(c2)CCN3Cc2ccccc2)c1` [Example 100, 1-benzylindolin-5-yl 3-methoxybenzylcarbamate], the IC50 [1, 3] was 1600 nM, the IC50 [2, 4] was 7.3 nM and the “Ratio AChE/BuChE” value [2] was 220. The “selectivity to butyrylcholinesterase (BuChE versus AChE inhibitory activity), in words” value [2] was “much higher”.

With `O=C(NCc1ccccn1)Oc1ccc2c(c1)CCN2Cc1ccccc1` [Example 102, 1-benzylindolin-5-yl 2-pyridylmethylcarbamate] the IC50 [1, 3] was 10000 nM, the IC50 [2, 4] was 130 nM and the “Ratio AChE/BuChE” value [2] was 77.

For `O=C(NCc1ccncc1)Oc1ccc2c(c1)CCN2Cc1ccccc1` [Example 103, 1-benzylindolin-5-yl 4-pyridylmethylcarbamate], the IC50 [1, 3] was 9300 nM, the IC50 [2, 4] was 110 nM and the “Ratio AChE/BuChE” value [2] was 85.

For `O=C(NCCc1ccc(Cl)cc1)Oc1ccc2c(c1)CCN2Cc1ccccc1` [Example 104, 1-benzylindolin-5-yl 4-chlorophenethylcarbamate], the IC50 [1, 3] was 5500 nM, the IC50 [2, 4] was 11 nM and the “Ratio AChE/BuChE” value [2] was 500. The “selectivity to butyrylcholinesterase (BuChE versus AChE inhibitory activity), in words” value [2] was “much higher”.

In the case of `Cc1ccc(NC(=O)Oc2ccc3c(c2)CCN3Cc2ccccc2)cc1C` [Example 113, 1-benzylindolin-5-yl 3,4-dimethylphenylcarbamate], the IC50 [1] is reported as greater than 100000 nM, the IC50 [2] is reported as 160 nM and the “Ratio AChE/BuChE” value [2] is reported as greater than 630.

For `CCCNC(=O)Oc1ccc2c(c1)CCN2Cc1ccccc1` [Example 114, 1-benzylindolin-5-yl n-propylcarbamate], the IC50 [1, 3] was 5200 nM, the IC50 [2, 4] was 180 nM and the “Ratio AChE/BuChE” value [2] was 29.

In the case of `Cc1ccccc1CCNC(=O)Oc1ccc2c(c1)CCN2Cc1ccccc1` [Example 115, 1-benzylindolin-5-yl 2-methylphenethylcarbamate], the IC50 [1, 3] is reported as 12000 nM, the IC50 [2, 4] is reported as 10 nM and the “Ratio AChE/BuChE” value [2] is reported as 1200. The “selectivity to butyrylcholinesterase (BuChE versus AChE inhibitory activity), in words” value [2] was “much higher”.

For `Cc1ccc(CCNC(=O)Oc2ccc3c(c2)CCN3Cc2ccccc2)c(C)c1` [Example 116, 1-benzylindolin-5-yl 2,4-dimethylphenethylcarbamate], the IC50 [1] was greater than 100000 nM, the IC50 [2] was 45 nM and the “Ratio AChE/BuChE” value [2] was greater than 2200. The “selectivity to butyrylcholinesterase (BuChE versus AChE inhibitory activity), in words” value [2] was “much higher”.

In the case of `COc1ccccc1CCNC(=O)Oc1ccc2c(c1)CCN2Cc1ccccc1` [Example 117, 1-benzylindolin-5-yl 2-methoxyphenethylcarbamate], the IC50 [1, 3] is reported as 7900 nM, the IC50 [2, 4] is reported as 24 nM and the “Ratio AChE/BuChE” value [2] is reported as 330. For the same molecule, the “selectivity to butyrylcholinesterase (BuChE versus AChE inhibitory activity), in words” value [2] was “much higher”.

In the case of `O=C(NCCc1ccc(Cl)cc1Cl)Oc1ccc2c(c1)CCN2Cc1ccccc1` [Example 118, 1-benzylindolin-5-yl 2,4-dichlorophenethylcarbamate], the IC50 [1] is reported as greater than 100000 nM, the IC50 [2] is reported as 10 nM and the “Ratio AChE/BuChE” value [2] is reported as greater than 10000. For the same molecule, the “selectivity to butyrylcholinesterase (BuChE versus AChE inhibitory activity), in words” value [2] was “much higher”.

In the case of `O=C(NCCc1ccncc1)Oc1ccc2c(c1)CCN2Cc1ccccc1` [Example 119, 1-benzylindolin-5-yl 2-(4-pyridyl)ethylcarbamate], the IC50 [1, 3] is reported as 14000 nM, the IC50 [2, 4] is reported as 59 nM and the “Ratio AChE/BuChE” value [2] is reported as 240. The “selectivity to butyrylcholinesterase (BuChE versus AChE inhibitory activity), in words” value [2] was “much higher”.

In the case of `O=C(NCCc1cccnc1)Oc1ccc2c(c1)CCN2Cc1ccccc1` [Example 120, 1-benzylindolin-5-yl 2-(3-pyridyl)ethylcarbamate], the IC50 [1, 3] is reported as 8500 nM, the IC50 [2, 4] is reported as 24 nM and the “Ratio AChE/BuChE” value [2] is reported as 350. For the same molecule, the “selectivity to butyrylcholinesterase (BuChE versus AChE inhibitory activity), in words” value [2] was “much higher”.
